Laboratory results from patent US9777008B2, “PRMT5 inhibitors and uses thereof” (Epizyme, Inc., priority 2012, dated 2017).

Experiments:
PRMT5/MEP50 = PRMT5/MEP50 (Homo sapiens (Human), UniProt O14744); experiment: PRMT5 Biochemical Assay (PRMT5/MEP50 enzyme assay on peptide substrate, 3H-SAM Flashplate)
Source text: S-adenosylmethionine (SAM), S-adenosylhomocysteine (SAH), bicine, KCl, Tween20, dimethylsulfoxide (DMSO), bovine skin gelatin (BSG), and Tris(2-carboxyethyl)phosphine hydrochloride solution (TCEP) were purchased from Sigma-Aldrich at the highest level of purity possible. ^3H-SAM was purchase from American Radiolabeled Chemicals with a specific activity of 80 Ci/mmol. 384-well streptavidin Flashplates were purchased from PerkinElmer.
Peptide representative of human histone H4 residues 1-15 was synthesized with a C-terminal linker-affinity tag motif and a C-terminal amide cap by 21st Century Biochemicals. The peptide was high high-performance liquid chromatography (HPLC) purified to greater than 95% purity and confirmed by liquid chromatography mass spectrometry (LC-MS). The sequence was Ac-[…][K-Biot]-amide (SEQ ID NO.:3).
Molecular Biology: Full-length human PRMT5 (NM_006109.3) transcript variant 1 clone was amplified from a fetal brain cDNA library, incorporating flanking 5′ sequence encoding a FLAG tag ([…]) (SEQ ID NO.:4) fused directly to Ala 2 of PRMT5. Full-length human MEP50 (NM_024102) clone was amplified from a human testis cDNA library incorporating a 5′ sequence encoding a 6-histidine tag (MHHHHHH) (SEQ ID NO.:5) fused directly to Arg 2 of MEP50. The amplified genes were sublconed into pENTR/D/TEV (Life Technologies) and subsequently transferred by Gateway™ attL×attR recombination to pDEST8 baculvirus expression vector (Life Technologies).
Recombinant baculovirus and Baculovirus-Infected Insect Cells (BIIC) were generated according to Bac-to-Bac kit instructions (Life Technologies) and Wasilko, 2006, respectively. Protein over-expression was accomplished by infecting exponentially growing Spodoptera frugiperda (SF9) cell culture at 1.2×10^6 cell/ml with a 5000 fold dilution of BIIC stock. Infections were carried out at 27° C. for 72 hours, harvested by centrifugation, and stored at −80° C. for purification.
Flag-PRMT5/6His-MeP50 was eluted with 300 mM Imidazole in the same buffer. The purity of recovered protein was 87%. Reference: Wasilko, D. J. and S. E. Lee: “TIPS: titerless infected-cells preservation and scale-up” Bioprocess J., 5 (2006), pp. 29-32.
General Procedure for PRMT5/MEP50 Enzyme Assays on Peptide Substrates.
The assays were all performed in a buffer consisting of 20 mM Bicine (pH=7.6), 1 mM TCEP, 0.005% BSG, and 0.002% Tween20, prepared on the day of use. Compounds in 100% DMSO (1 ul) were spotted into a polypropylene 384-well V-bottom plates (Greiner) using a Platemate Plus outfitted with a 384-channel head (Thermo Scientific). DMSO (1 ul) was added to Columns 11, 12, 23, 24, rows A-H for the maximum signal control and 1 ul of SAH, a known product and inhibitor of PRMT5/MEP50, was added to columns 11, 12, 23, 24, rows I-P for the minimum signal control. A cocktail (40 ul) containing the PRMT5/MEP50 enzyme and the peptide was added by Multidrop Combi (Thermo-Fisher). The compounds were allowed to incubate with PRMT5/MEP50 for 30 min at 25 degrees Celsius, then a cocktail (10 ul) containing ^3H-SAM was added to initiate the reaction (final volume=51 ul). The final concentrations of the components were as follows: PRMT5/MEP50 was 4 nM, ^3H-SAM was 75 nM, peptide was 40 nM, SAH in the minimum signal control wells was 100 uM, and the DMSO concentration was 1%. The assays were stopped by the addition of non-radioactive SAM (10 ul) to a final concentration of 600 uM, which dilutes the ^3H-SAM to a level where its incorporation into the peptide substrate is no longer detectable. 50 ul of the reaction in the 384-well polypropylene plate was then transferred to a 384-well Flashplate and the biotinylated peptides were allowed to bind to the streptavidin surface for at least 1 hour before being washed three times with 0.1% Tween20 in a Biotek ELx405 plate washer. […]

[1] = test system: symmetric di-methyl arginine in Z-138 cells; experiment: Z-138 Methylation Assay (In Cell Western for symmetric di-methyl arginine and DNA content); type: cell-based; settings: Homo sapiens, read-out: ICW EC50
Source text: [formula] [formula] Where top and bottom are the normally allowed to float, but may be fixed at 100 or 0 respectively in a 3-parameter fit. The Hill Coefficient normally allowed to float but may also be fixed at 1 in a 3-parameter fit. Y is the % inhibition and X is the compound concentration. Z-138 Methylation Assay
Z-138 suspension cells were purchased from ATCC (American Type Culture Collection, Manassas, Va.). RPMI/Glutamax medium, penicillin-streptomycin, heat inactivated fetal bovine serum, and D-PBS were purchased from Life Technologies, Grand Island, N.Y., USA. Odyssey blocking buffer, 800CW goat anti-rabbit IgG (H+L) antibody, and Licor Odyssey infrared scanner were purchased from Licor Biosciences, Lincoln, Nebr., USA. Symmetric di-methyl arginine antibody was purchased from EMD Millipore, Billerica, Mass., USA. 16% Paraformaldehyde was purchased from Electron Microscopy Sciences, Hatfield, Pa., USA. Z-138 suspension cells were maintained in growth medium (RPMI 1640 supplemented with 10% v/v heat inactivated fetal bovine serum and 100 units/mL penicillin-streptomycin) and cultured at 37° C. under 5% CO2.
Cell Treatment, in Cell Western (ICW) for Detection of Symmetric Di-Methyl Arginine and DNA Content.
Z-138 cells were seeded in assay medium at a concentration of 50,000 cells per mL to a 384-well cell culture plate with 50 μL per well. Compound (100 nL) from 384 well source plates was added directly to 384 well cell plate. Plates were incubated at 37° C., 5% CO2 for 96 hours. […]
First, the ratio for each well was determined by:
Each plate included fourteen control wells of DMSO only treatment (minimum inhibition) as well as fourteen control wells for maximum inhibition treated with 3 μM of a reference compound (Background wells). The average of the ratio values for each control type was calculated and used to determine the percent inhibition for each test well in the plate. […] Percent inhibition was determined and IC50 curves were generated using triplicate wells per concentration of compound. […]

PRMT5/MEP50, sequence (O14744 other isoform, or with tags, fused parts or gaps): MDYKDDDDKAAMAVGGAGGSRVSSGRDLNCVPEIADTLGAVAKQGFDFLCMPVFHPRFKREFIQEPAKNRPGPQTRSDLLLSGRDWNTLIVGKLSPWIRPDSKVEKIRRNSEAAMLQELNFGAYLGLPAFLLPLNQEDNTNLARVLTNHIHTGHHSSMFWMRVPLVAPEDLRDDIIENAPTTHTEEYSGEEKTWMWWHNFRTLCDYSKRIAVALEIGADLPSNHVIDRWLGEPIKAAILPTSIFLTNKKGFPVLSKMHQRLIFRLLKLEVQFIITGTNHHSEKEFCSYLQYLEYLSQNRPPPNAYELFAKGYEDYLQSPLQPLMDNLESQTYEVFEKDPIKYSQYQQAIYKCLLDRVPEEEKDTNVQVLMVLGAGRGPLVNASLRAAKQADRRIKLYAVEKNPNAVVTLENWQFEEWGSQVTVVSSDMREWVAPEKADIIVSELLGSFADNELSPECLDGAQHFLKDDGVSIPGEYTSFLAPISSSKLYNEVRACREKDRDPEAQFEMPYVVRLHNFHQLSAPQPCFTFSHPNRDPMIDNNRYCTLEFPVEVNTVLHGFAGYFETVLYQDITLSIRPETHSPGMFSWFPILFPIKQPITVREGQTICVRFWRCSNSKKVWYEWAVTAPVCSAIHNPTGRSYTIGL
PRMT5/MEP50, sequence (Q9BQA1 other isoform, or with tags, fused parts or gaps partner): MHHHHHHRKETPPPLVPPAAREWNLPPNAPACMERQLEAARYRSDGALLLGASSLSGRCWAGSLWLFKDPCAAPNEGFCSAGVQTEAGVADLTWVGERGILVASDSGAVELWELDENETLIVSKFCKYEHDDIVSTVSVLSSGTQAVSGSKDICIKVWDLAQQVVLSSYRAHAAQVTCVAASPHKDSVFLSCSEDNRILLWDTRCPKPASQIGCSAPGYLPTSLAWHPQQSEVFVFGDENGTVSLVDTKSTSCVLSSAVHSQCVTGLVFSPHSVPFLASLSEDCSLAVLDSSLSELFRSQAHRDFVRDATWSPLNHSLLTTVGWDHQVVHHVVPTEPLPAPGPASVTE

IC50 (PRMT5/MEP50): 1 to 10 µM
EC50 [1]: 1 to 10 µM
SMILES: O=C(Nc1cccc(OCC(O)CN2CCc3ccccc3C2)c1)c1cccnc1 (centres unmarked) [Compound 163]
